Results reported in US8673594B2, “Methods for stimulating nervous system regeneration and repair by regulating arginase I and polyamine synthesis” (Research Foundation of City University of New York, priority 2000, dated 2014).

Legend:
[1] = system: DRG neurons on MAG-expressing CHO cells; assay: Neurite outgrowth of DRG neurons on MAG-expressing or control CHO cells; assay type: cell-based; details: P0-1 DRG neurons, DFMO 1 mM
Description: After overnight incubation, neurons were fixed and immunostained for GAP 43. The longest neurite from each of 120-150 DRG neurons were measured. Results are shown as the mean neurite length+/−SEM.
FIG. 14: Over-Expression Of Arginase In Older DRG Neurons By Adenovirus-Mediated Gene Transfer Is Sufficient To Overcome Inhibition By MAG. Postnatal day 5 DRG neurons (0.5×10^6) were plated in 24-well plates and infected with adenovirus containing ArgI-GFP or GFP alone. Alter overnight culture, infected neurons were transferred to MAG-expressing (stippled bars) or control (black bars) CHO cells for neurite outgrowth. Neurons were fixed and immunostained for GAP43. The neurons with double staining of GAP43 and GFP were considered as positively infected. The length of the longest neurite per neuron was measured for 120-150 positively infected neurons. Results are shown as the average neurite length+/−SEM of GFP-infected (GFP) or ArgI-infected (ArgI) neurons grown on MAG.
Neurons were isolated essentially as described in Doherty at al., Nature, 343, pp. 464-66 (1990); Neuron, 5, pp. 209-19 (1990); and Kleitman at al., Culturing Nerve Cells, pp. 337-78, MIT Press, Cambridge, Mass./London, England (G. Banker and K Goslin, Eds.) (1991). […] Cells were counted with a Coulter counter. […]

[2] = system: cerebellar neurons on MAG-expressing CHO cells; assay: Neurite outgrowth of cerebellar neurons on MAG-expressing or control CHO cells; assay type: cell-based
Description: FIG. 2: Improved Axonal Growth on MAG Induced By Elevating cAMP Levels is Transcription-Dependent. (A) Isolated cerebellar neurons at a density of 20,000 neurons per well were plated onto a monolayer of either MAG-expressing Chinese hamster ovary (CHO) cells (striped bars) or control CHO cells (black bars) and cultured overnight before being fixed and immunostained for GAP43 to visualize the neurites. The length of the longest neurite per neuron, from 180-200 neurons, was measured and results are the average length+/−SEM. Where indicated, dibutyryl cAMP (dbcA) at 1 mM in the presence or absence of the inhibitor of transcription, 5,6-dichloro-1-b-D-ribofuranosylbenzimidazole (DRB) at 5 μM, was added to each culture. (B) Cerebellar neurons (1×10^6) were plated onto poly-L-lysine and cultured overnight with brain-derived neurotrophic factor (BDNF) at 200 ng/ml, (termed priming) in the presence or absence of DRB at 5 μM, before being transferred to the CHO cell monolayers.
FIG. 6: An Ornithine Decarboxylase (ODC) Inhibitor Abrogates the Blocking Effect of dbcAMP on the Inhibition of Axonal Outgrowth by MAG and Myelin. […] The longest neurite from at least 180-200 neurons were measured. Results are shown as the mean neurite length+/−SEM.
(§1) After further incubation, neurons were fixed and immunostained for GAP43. The longest neurite from each neuron for 180-200 neurons were measured. Results are shown as the mean neurite length+/−SEM.
FIG. 8: An Inhibitor Of ODC Blocks The Priming Effects Of GDNF On The Inhibition By MAG. […] After further incubation, neurons were fixed and immunostained for GAP43. The longest neurite from each neuron for 180-200 neurons were measured. Results are shown as the mean neurite length±SEM.
Primed neurons were transferred to either MAG-expressing or control CHO cells (A) or a substrate of CNS myelin (B) for further incubation. Neurons were then fixed and immunostained for GAP43. The longest neurite from each neuron was measured for 180-200 neurons. Results are shown as the percentage of control. […]
Neurons were isolated essentially as described in Doherty at al., Nature, 343, pp. 464-66 (1990); Neuron, 5, pp. 209-19 (1990); and Kleitman at al., Culturing Nerve Cells, pp. 337-78, MIT Press, Cambridge, Mass./London, England (G. Banker and K Goslin, Eds.) (1991). Briefly, for animals up to nine days of age, the cerebellum, from two animals were removed and combined in 5 ml of 0.025% trypsin in PBS, triturated, and incubated for a further 10 minutes (min.) at 37° C. Trypsinization was stopped by addition of 5 ml DMEM containing 10% fetal calf serum (FCS) and cells were centrifuged at 800 rpm for 6 min. […] For older DRG neurons, ganglia were removed from two animals and incubated in 5 ml of Sat medium containing 0.025% trypsin and 0.15% collagenase type I (Worthington) for 30 min. at 37° C. The ganglia were triturated with a fire-polished Pasteur pipette. Trypsinization was stopped by adding 5 ml of DMEM containing 10% FCS, centrifuged at 800 rpm for 6 min, and resuspended in 2 ml of SAT (DeBellard et al., 1996). Cells were counted with a Coulter counter.
Chinese hamster ovary (CHO) cells deficient in the dihydrofolate reductase (dhfr) gene (Urlaub and Chasin, Proc. Natl, Acad, Sci. 77, pp. 4216-20 (1980)) were transfected with a MAG-cDNA expression plasmid with the dhfr gene and the L-MAG cDNA, cells with multiple copies of dbfr were selected by growing in increasing concentrations of methotrexate, and the expression of MAG by individual transfected CHO cell lines characterized as described in Mukhopadhyay et al., Neuron, 13, pp. 757-67 (1994), which is incorporated herein by reference. The MAG-expressing transfected CHO cell line) (“CHO-MAG2”) in that publication was deposited on Jun. 27, 1996 with the American Type Culture Collection (ATCC) (Rockville, Md.) according to the provisions of the Budapest Treaty, and was assigned the ATCC accession number designated: ATCC CRL-12145. […]

[3] = target: T1, arginase (Rattus norvegicus, UniProt P07824); details: cited from earlier work
T1 sequence (P07824 1-323): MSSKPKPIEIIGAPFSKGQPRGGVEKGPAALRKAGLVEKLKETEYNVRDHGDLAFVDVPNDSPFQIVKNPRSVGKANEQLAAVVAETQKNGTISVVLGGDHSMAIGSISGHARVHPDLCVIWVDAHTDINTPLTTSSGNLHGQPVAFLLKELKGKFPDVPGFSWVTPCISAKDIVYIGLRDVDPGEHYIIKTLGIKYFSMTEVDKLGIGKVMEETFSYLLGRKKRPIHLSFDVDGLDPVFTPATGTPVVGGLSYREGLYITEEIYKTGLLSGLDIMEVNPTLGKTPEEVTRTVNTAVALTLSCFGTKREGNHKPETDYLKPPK

[4] = system: cerebellar neurons on purified CNS myelin; assay: Neurite outgrowth of cerebellar neurons on purified CNS myelin substrate; assay type: cell-based
Description: Isolated cerebellar neurons at a density of 20,000 neurons per well were plated onto a substrate of purified CNS myelin and cultured overnight before being fixed and immunostained for GAP43. The length of the longest neurite per neuron from 180-200 neurons was measured and results are the average length+/−SEM. Where indicated, dibutyryl cAMP (dbcA) at 1 mM in the presence or absence of the inhibitor of transcription, 5,6-dichloro-1-b-D-ribofuranosylbenzimidazole (DRB) at 5 μM, was added to each culture. (B) Cerebellar neurons (1×10^6) were plated onto poly-L-lysine and cultured overnight with brain-derived neurotrophic factor (BDNF) at 200 ng/ml, (termed priming) in the presence or absence of DRB at 5 μM, before being transferred to the CNS myelin substrate.
The longest neurite from at least 180-200 neurons were measured. Results are shown as the mean neurite length+/−SEM.
as §1
Primed neurons were transferred to either MAG-expressing or control CHO cells (A) or a substrate of CNS myelin (B) for further incubation. Neurons were then fixed and immunostained for GAP43. The longest neurite from each neuron was measured for 180-200 neurons.
Trypsinization was stopped by addition of 5 ml DMEM containing 10% fetal calf serum (FCS) and cells were centrifuged at 800 rpm for 6 min. […] The ganglia were triturated with a fire-polished Pasteur pipette. […] Cells were counted with a Coulter counter.
The neurite outgrowth assay was carried out by adding 5×10^4 neurons to the immobilized myelin substrate or 2×10^4 neurons to the CHO cell monolayers. Briefly, confluent monolayers of control and MAG-expressing CHO cells were established over a 24-hour (h) period in individual chambers of an 8-well tissue culture slide (Lab-Tek). […] Culture medium was SATO containing 2% FCS.
GAP43 antibody was detected by staining with Texas Red and arginase antibody was detected with anti-biotin secondary antibody followed by Texas Red-conjugated streptavidin.
After periods of time as indicated, the co-cultures were fixed for 30 min with 4% paraformaldehyde and permeabilized with ice-cold methanol for 2 min. […] After three more washes, the slides were mounted in Permfluor (Baxter) and viewed with a Zeiss fluorescent microscope. The length of the longest neurite for each GAP43-positive neuron was determined using the Biological Detection System image analysis program (Pittsburgh).

[5] = putrescine in the culture, no priming

**Q.** What does the source list for `Cl.NCCCC(N)(C(=O)O)C(F)F` (racemic) [DFMO, DL-a-difluoromethyl-ornithine hydrochloride]?
**A.** effect alone on neurite growth on control CHO cells, young DRG neurons [1]: no effect; effect on promotion of axonal growth by MAG in young DRG neurons ([1]; overnight): completely abolished; effect on the positive (priming) effect of BDNF on axonal growth in the presence of MAG ([2]; DFMO 1 mM during overnight priming with BDNF 200 ng/ml): completely abrogated; effect on the positive (priming) effect of GDNF on axonal growth in the presence of MAG ([2]; DFMO 1 mM during overnight priming with GDNF 200 ng/ml): completely abrogated; effect on the dbcAMP block of inhibition by MAG ([2]; DFMO 1 mM with dbcAMP 1 mM): lost; effect alone on neurite growth on control CHO cells ([2]; DFMO 1 mM, control CHO cells): no significant effect; effect alone on inhibition by MAG ([2]; DFMO 1 mM, no dbcAMP): no significant effect

**Q.** For `N[C@@H](CCCCB(O)O)C(=O)O` [ABH, 2(S)-amino-6-boronohexanoic acid], which “arginase inhibitor potency, in words” value [3] is on record?
**A.** most potent inhibitor of arginase identified to date

**Q.** With `OC[C@H]1O[C@@H](n2cnc3cc(Cl)c(Cl)cc32)[C@H](O)[C@@H]1O` [DRB, 5,6-dichloro-1-b-D-ribofuranosylbenzimidazole] as the compound, how does the “effect of transcription inhibitor on the dbcAMP/BDNF block of MAG inhibition” value ([2]; DRB 5 μM with dbcAMP 1 mM or BDNF 200 ng/ml priming) read?
**A.** neither dbcAMP nor BDNF block inhibition

**Q.** Which results are given for `NCCCCN` [putrescine]?
**A.** putrescine concentration at which the blocking effect on myelin saturates ([4]; overnight priming): about 50 μM; increase in axonal outgrowth on CNS myelin ([4]; priming with putrescine at 10 μM): two-fold; block of inhibition of axonal growth by myelin, putrescine added without priming [4, 5]: only partially blocks; putrescine dose above which the blocking effect on MAG saturates ([2]; overnight priming): higher than 25 μM; effect of putrescine on BDNF priming blocked by DFMO (MAG) ([2]; putrescine (10 mM as printed elsewhere in the source) with DFMO 1 mM and BDNF during priming): restored the priming effect of BDNF; block of inhibition of axonal growth by MAG, putrescine added without priming [2, 5]: only partially blocks
